Data on two compounds can be found in US8420653B2, “Pyrimidine compounds and their uses” (Orchid Chemicals & Pharmaceuticals Limited, priority 2008, dated 2013).

Test [1] has as its target T1, purified recombinant COX-2 (Homo sapiens, UniProt P35354).
T1 sequence (P35354 18-604): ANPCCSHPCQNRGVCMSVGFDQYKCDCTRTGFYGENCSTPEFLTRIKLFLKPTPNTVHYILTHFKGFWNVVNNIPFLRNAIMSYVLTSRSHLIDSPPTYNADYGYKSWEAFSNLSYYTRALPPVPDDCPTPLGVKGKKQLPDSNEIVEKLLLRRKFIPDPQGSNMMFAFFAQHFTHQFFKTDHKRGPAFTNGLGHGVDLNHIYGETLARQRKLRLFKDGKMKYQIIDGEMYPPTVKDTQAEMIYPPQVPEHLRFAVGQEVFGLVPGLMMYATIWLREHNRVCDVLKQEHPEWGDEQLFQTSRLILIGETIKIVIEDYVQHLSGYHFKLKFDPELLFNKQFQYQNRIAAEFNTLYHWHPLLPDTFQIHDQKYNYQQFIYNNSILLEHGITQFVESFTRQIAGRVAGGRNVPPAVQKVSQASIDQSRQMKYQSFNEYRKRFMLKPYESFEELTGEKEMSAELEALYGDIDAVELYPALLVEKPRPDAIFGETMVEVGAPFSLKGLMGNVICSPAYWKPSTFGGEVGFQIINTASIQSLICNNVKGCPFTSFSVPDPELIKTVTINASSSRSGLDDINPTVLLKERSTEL
As to the kind of experiment: COX-2 enzyme based assay. It is filed as biochemical. The conditions noted are these: for inhibition at 10 µM: read-out: % Inhibition in rEnzyme Assay COX-2; for COX2 at 10 μm: Table XVa summary. The protocol: COX-1 and COX-2 enzyme based assays were carried out to check the inhibitory potential of the test compounds on the production of prostaglandin by purified recombinant COX-1/COX-2 enzyme (Proc. Nat. Acad. Sci. USA, 88, 2692-2696, 1991; J. Clin. Immunoassay 15, 116-120, 1992). In this assay, the potential of the test compound to inhibit the production of prostaglandin either by COX-1 or COX-2 from arachidonic acid (substrate) was measured. This was an enzyme based in-vitro assay to evaluate selective COX inhibition with good reproducibility.
Arachidonic acid was converted to PGH2 (Intermediate product) by COX1/COX-2 in the presence or absence of the test compound. The reaction was carried out at 37° C. and after 2 minutes it was stopped by adding 1M HCl. Intermediate product PGH2 was converted to a stable prostanoid product PGF2α by SnCl2 reduction. The amount of PGF2α produced in the reaction was inversely proportional to the COX inhibitory potential of the test compound. The prostanoid product was quantified via enzyme immunoassay (EIA) using a broadly specific antibody that binds to all the major forms of prostaglandin, using Cayman ELISA kit as per the procedure outlined by the manufacturer (Cayman Chemicals, Ann Arbor, USA).

The test system of another test is TNF-α. The test is described as follows: In vitro measurement of TNF-α in human PBMC. It is filed as cell-based. The conditions noted are these: for inhibition at 1 µM: Conc. (1 μM); for inhibition at 10 µM: Conc. (10 μM). As to the method: In Vitro Measurement of TNF-α in Human Peripheral Blood Mononuclear Cells
This assay determines the effect of test compounds on the production of TNF a in human Peripheral Blood Mononuclear Cells (PBMC). Compounds were tested for their ability to inhibit the activity of TNF α in human PBMC. PBMC were isolated from blood (of healthy volunteers) using BD Vacutainer CPT™ (Cell preparation tube, BD Bio Science) and suspended in RPMI medium (Physiol. Res. 52, 593-598, 2003). The test compounds were pre-incubated with PBMC (0.5 million/incubation well) for 15 minutes at 37° C. and then stimulated with Lipopolysaccharide (Escherichia coli: B4; 1 μg/ml) for 18 hours at 37° C. in 5% CO2. The levels of TNF-α in the cell culture medium were estimated using enzyme-linked immunosorbent assay performed in a 96 well format as per the procedure of the manufacturer (Cayman Chemical, Ann Arbor, USA).

The test system of the next test is HCT-116. As to the kind of experiment: Anti-cancer screen (MTT), HCT-116. The conditions noted are these: Homo sapiens. It counts as cell-based. As to the method:
(§1) Experimental drugs are screened for anti-cancer activity in three cell lines for their GI50, TGI and LC50 values (using 5 concentrations for each compound). The cell lines are maintained in DMEM containing 10% fetal bovine serum. 96 well microtiter plates are inoculated with cells in […] for 24 hours at 37° C., 5% CO2, 95% air and 100% relative humidity. 5000 HCT116 cells/well, 5000 NCIH460 cells/well, 10000 U251 cells/well and 5000 MDAMB231 cells/well are plated. A separate plate with these cell lines is also inoculated to determine cell viability before the addition of the compounds (T0).
(§2) Following 24-hour incubation, experimental drugs are added to the 96 well plates. Each plate contains one of the above cell lines and the following in triplicate: 5 different concentrations (0.01, 0.1, 1, 10 and 100 μM) of 4 different compounds, appropriate dilutions of a cytotoxic standard and control (untreated) wells. Compounds are dissolved in dimethylsulfoxide (DMSO) to make 20 mM stock solutions, on the day of drug addition and frozen at −20° C. Serial dilutions of these 20 mM stock solutions are made in complete growth medium such that 100 μL of these drug solutions in medium, of final concentrations equaling 0.01, 0.1, 1, 10 and 100 μM can be added to the cells in triplicate. Standard drugs whose anti-cancer activity has been well documented and which are regularly used are doxorubicin and SAHA.
(§3) Cells are incubated with compounds for 48 hours followed by the addition of 10 μL 3-(4,5-Dimethyl-2-thiazolyl)-2,5-diphenyl-2H-tetrazolium (MTT) solution per well and a subsequent incubation at 37° C., 5% CO2, 95% air and 100% relative humidity, protected from light. After 4 hours, well contents are aspirated carefully followed by addition of 150 μL DMSO per well. Plates are agitated to ensure solution of the formazan crystals in DMSO and absorbance read at 570 nm.
(§4) Percent growth is calculated for each compound's concentration relative to the control and zero measurement wells (T0; viability right before compound addition). If a test well's O.D. value is greater than the T0 measurement for that cell line % Growth=(test−zero)/(control−zero)×100
(§5) If a test well's O.D. value is lower than the T0 measurement for that cell line, then: % Growth=(test−zero)/zero×100
(§6) Plotting % growth versus experimental drug concentration, GI50 is the concentration required to decrease % growth by 50%; TGI is the concentration required to decrease % growth by 100% and LC50 is the concentration required to decrease % growth by 150%.

Another test relates to NCI-H460. As to the kind of experiment: Anti-cancer screen (MTT), NCI-H460. It counts as cell-based. The conditions noted are these: Homo sapiens. The protocol:
as §1, §2, §3, §4, §5, §6

[2] abbreviates: 48 hours, MTT, read-out: GI50 (μM) HCT-116.
Where [3] appears, read: Table XVb summary, for HCT, read-out: Cancer cell lines DU, HCT, NCI (Mean GI50, μm), HCT.
The mark [4] stands for this setting: 48 hours, MTT, read-out: GI50 (μM) NCI-H460.
[5] abbreviates: Table XVb summary, for NCI, read-out: Cancer cell lines DU, HCT, NCI (Mean GI50, μm), NCI.

Where two headings read alike, the source gives them in different places.

Consider `NS(=O)(=O)c1cccc(-c2c(-c3ccc(F)cc3)nc(C(F)(F)F)nc2-n2ccnc2)c1` [Example 80, 3-[4-(4-Fluorophenyl)-6-(1H-imidazol-1-yl)-2-(trifluoromethyl)pyrimidin-5-yl]benzenesulfonamide], for which the inhibition at 10 µM in test [1] came to 20%; in the test with TNF-α, 78%. Moreover, the “COX2 at 10 μm” value in test [1] stood at 20. In the test on TNF-α, this compound gave an inhibition at 1 µM of 50%. Moreover, the GI50 in the test with HCT-116 (setting [2]), in the test on HCT-116 (setting [3]), with NCI-H460 (setting [4]) and in the test with NCI-H460 (setting [5]) was > 100 µM throughout.

`CCOC(=O)C1CCN(c2nc(C(F)(F)F)nc(-c3ccc(F)cc3)c2-c2cccc(S(N)(=O)=O)c2)CC1` [Example 59, Ethyl-1-[5-(3-aminosulfonylphenyl)-6-(4-fluorophenyl)-2-(trifluoromethyl)pyrimidin-4-yl]piperidine-4-carboxylate]: the results for the inhibition at 10 µM (in test [1]; in the test on TNF-α) were 31% and 92%, respectively. Also, the “COX2 at 10 μm” value in test [1] was 31. In the test on TNF-α, this compound displayed an inhibition at 1 µM of 87%. Also, the GI50 in the test with HCT-116 (setting [2]) was > 100 µM; with HCT-116 (setting [3]), > 100 µM; in the test with NCI-H460 (setting [4]), 10.5 µM; in the test with NCI-H460 (setting [5]), 10.5 µM.

For orientation: inhibition means the share of the control response that was lost under treatment. By GI50 is commonly meant the concentration that inhibits growth by half.
